Experimental data: patent US10081609B2, “Compounds for inducing proliferation and differentiation of cells, and methods of use thereof” (The Broad Institute, Inc., priority 2013, dated 2018)

Legend:
iHeps [1] = assay: Gene expression profiles of treated iHeps (Luminex); assay type: cell-based, human
Experimental: Cells were lysed using RLT buffer (Qiagen) or Trizol (Invitrogen) and purified using the Mini-RNeasy kit (Qiagen). Gene expression was determined using Luminex analysis, as previously described. Briefly, total RNA was immobilized on a Qiagen turbo capture 384-well plate, and reverse-transcribed using oligodT priming A biotinylated FlexMap tag sequence unique to each gene of interest and a phosphorylated downstream probe were then added to resulting cDNAs to generate biotinylated FlexMap-tagged amplicons. Universal PCR was then performed for 35 cycles using a biotinylated T7 forward primer and T3 reverse primer in buffer with dNTPs and Taq polymerase. FlexMap microsphere beads conjugated with antitag oligonucleotides were then added and allowed to hybridize. Amplicons were captured by streptavidin-phyoerythrin, and 100 events per bead were analyzed for internal bead color and phyoerythrin reporter fluorescence on a Luminex FlexMap 3D analyzer. Data for replicate loadings, expressed in mean fluorescent intensity of at least 100 beads per sample, were scaled to the human transferrin gene and row-normalized for heat map representation using GeneE open software (Broad Institute).
(§1) The ability of compounds of the invention to affect the differentiation and maturation of iHeps was tested. Undifferentiated iPS cells were cultured on Matrigel, supported by primary mouse embryonic fibroblasts. Once confluent, iPS cells were transitioned to differentiation media, with sequential addition of growth factors (Activin A, BMP-4, bFGF, HGF, and OSM) to guide differentiation, first into endoderm, then into hepatic progenitor cells and finally into iHeps. Compound treatment started on day 21 post initiation of differentiation and acted over a period of 9 days. FH1 and FPH2 were used to treat iHeps. FH1 doubled albumin secretion during primary screening (FIG. 4A left) in a dose-responsive manner (FIG. 4A right).
Euclidian clustering analyses groups untreated cells with fetal hepatocytes and treated cells with mature hepatocytes (FIG. 4C left). Of particular interest are ABC transporters, CYP3A4 and GSTP1 expression levels. ABC transporters are known to mature after birth. ABCB11, also known as bile-salt export pump (BSEP), increased ˜3 fold and ˜4 fold in expression levels with FPH2 and FH1 treatment, respectively, compared to untreated iHeps. In contrast, GSTP1 expression, whose levels decrease with maturity, remained low upon FPH2 and FH1 treatment compared to untreated iHeps (FIG. 4C right).

[2] = test system: lfabp:GFP zebrafish embryos; assay: Survival of zebrafish embryos after a fatal dose of APAP; assay type: in vivo; conditions: 10 mM APAP concurrently with compound, from 72 hrs post fertilization
Experimental: The effect of FH1 on zebrafish survival following APAP-induced toxicity was examined. lfabp:GFP zebrafish embryos were allowed to develop normally for 72 hrs post fertilization and then exposed to a fatal dose of 10 mM APAP concurrently with FH1 (FIG. 9A).

[3] = test system: lfabp:GFP zebrafish embryos; assay: Therapeutic window after a non-fatal dose of APAP in zebrafish embryos (liver size); assay type: in vivo; conditions: 5 mM APAP for 24 hrs before 24 hour treatment
Experimental: The current clinical treatment for APAP toxicity is the administration of NAC, which has a limited window of efficacy. To examine the therapeutic window of FH1 and PH1 efficacy, lfabp:GFP zebrafish embryos were allowed to develop normally for 48 hrs post fertilization, and then exposed to a non-fatal dose of 5 mM APAP for 24 hrs before initiation of treatment with FH1 or PH1 for an additional 24 hour period (FIG. 10A).

[4] = test system: transgenic lfabp:GFP zebrafish; assay: Liver development in transgenic lfabp:GFP zebrafish embryos; assay type: in vivo; conditions: exposure 24 to 72 hrs post fertilization
From the text: The effects of FH1 and PH1 on liver development were examined in transgenic lfabp:GFP zebrafish, in which GFP expression is restricted to the liver. Zebrafish embryos were allowed to develop normally for 24 hrs post fertilization and then exposed to either FH1 or PH1 until 72 hrs post fertilization (FIG. 8A). Livers were visualized by whole-mount fluorescence imaging (FIG. 8B) and lfabp in situ hybridization (FIG. 8C).

iHeps [5] = assay: CYP450 activities of treated iHeps through isoenzyme-specific probes; assay type: cell-based, human
Experimental: Culture media were collected and frozen at −20° C. until analysis. Albumin content was measured through sandwich ELISA assays (MP Biomedicals, Fitzgerald, Bethyl Laboratories) using horseradish peroxidase detection and 3,3′,5,5′-tetramethylbenzidine (TMB, Fitzgerald Industries) as a substrate. Urea concentration was determined colorimetrically using diacetylmonoxime with acid and heat (Stanbio Labs). To quantify CYP450 activity, at 48 hours after small molecule exposure, cultures were incubated with substrates (coumarin from Sigma for CYP2A6, luciferin-IPA from Promega for CYP3A4) for 4 hours at 37° C. Incubation medium was collected and metabolite concentration quantified via luminescence, or fluorescence after hydrolization of potential metabolite conjugates by β-glucuronidase/arylsulfatase (Roche, Ind.).
The ability of compounds of the invention to affect the differentiation and maturation of iHeps was tested. Undifferentiated iPS cells were cultured on Matrigel, supported by primary mouse embryonic fibroblasts. […]
To confirm the staining results, secreted levels of albumin and AFP via ELISA, and CYP450 activities through isoenzyme-specific probes that are either fluorescent or luminescent were measured. […]

iHeps [6] = assay: Differentiation of human iPS-derived hepatocytes (iHeps): morphology and immunofluorescent staining; assay type: cell-based
Experimental: as §1
To examine the effects of FH1 and FPH2 at the protein level, AFP, albumin and CYP3A4 levels weew visualized via immunofluorescent staining. […] This is in agreement with primary screening results as well as earlier morphological findings. Untreated cultures had islands that double stain for albumin and the fetal marker AFP, with very little presence of the mature marker CYP3A4.

[7] = test system: iPS-derived endothelial cells; assay: Differentiation of iPS-derived endothelial cells (nitric oxide); assay type: cell-based
Experimental: Cells were assayed for nitric oxide (NO), a mature marker for endothelial cells. CB=FPH2, M=FH1, E=PH1, while Null and DMSO are control runs with no additive and vehicle only, respectively.

[8] = test system: human primary hepatocytes; assay: High-throughput liver platform, primary screening: secreted albumin by competitive ELISA; assay type: cell-based
From the text: In order to evaluate the phenotype of treated cells, a secondary readout was included to quantify hepatocyte functions via competitive ELISA. This biochemical assay measured the level of secreted albumin as a marker for protein synthesis functions of the cultured hepatocytes (FIG. 1A bottom).
FIG. 1B top summarizes the workflow of the screen. Primary screening was done on human primary hepatocytes, preconditioned for seven days by non-parenchymal cells in the screening platform. Upon stabilization in vitro, cultures were treated with the chemical library for 48 hours. All compounds were tested in duplicates, at a single concentration of 15 μM. This single concentration was selected via a pilot screen of ˜2,000 small molecules. All 12,480 small molecules were initially tested on a single donor of cryopreserved hepatocytes (donor a) in order to eliminate noise from donor-to-donor variability. Following compound treatment, media supernatants were collected for functional analyses via ELISA and cultures were fixed in 4% paraformaldehyde for proliferation analyses via imaging.

[9] = test system: lfabp:GFP zebrafish embryos; conditions: clinical treatment for APAP toxicity; cited from earlier work

Row | Compound | ABCB11 (BSEP) expression level increase compared to untreated iHeps (iHeps [1]) [fold] | GSTP1 expression compared to untreated iHeps (iHeps [1]) | survival of embryos [2] [%] | embryonic liver size / liver mass after APAP compared to controls [3] | liver size compared to DMSO-treated controls [4] | CYP3A4 activity increase (iHeps [5]) [times] | staining of treated islands for albumin, CYP3A4 and AFP (iHeps [6]; immunofluorescent staining) | albumin staining (immunofluorescent) (iHeps [6]; treated iHeps) | hepatocyte phenotype of treated iHeps (iHeps [6]; treatment from day 21, 9 days) | differentiation of iPS-derived endothelial cells (nitric oxide) [7] | albumin secretion during primary screening [8] | typical therapeutic window [9] [h]
1 | CC(=O)Nc1ccc(Cc2ccc(NC(C)=O)cc2)cc1 [FH1, N,N′-(methylenebis(4,1-phenylene))diacetamide] | ~4 | remained low | 71 | mitigated APAP-induced loss of liver mass | increased | 16 | double stained strongly for albumin and CYP3A4, with very minimal presence of AFP | dramatic increases | more mature hepatocyte phenotypes | induce differentiation | doubled | –
2 | CC(=O)N[C@@H](CS)C(=O)O [NAC] | – | – | – | – | – | – | – | – | – | – | – | ~8
